# Assay results published in patent US20140050670A1, “MULTIFUNCTIONAL NANOPARTICLES” (THE UNIVERSITY OF WESTERN AUSTRALIA, priority 2010, published 2014).
# Assays:
# PC12 cells = assay: Intracellular calcium quantification after glutamate challenge (Fura-2); type: cell-based, rat; details: glutamate 10 mM, 24 hr; nanospheres 25 μg mL^−1, free lomerizine 1 μM; relative to ENP; dihydrochloride
# Source text: The pH in early endosomes is mildly acidic and falls below 5 as endosomes mature, so release of lomerizine from nanospheres could be triggered under these conditions. Here, we administered lomerizine to PC12 cells using nanospheres, and measured intracellular calcium concentrations after glutamate challenge to see if intracellular release of lomerizine could be employed for neuroprotection. PC12 cells express both N- and L-type VGCCs, but not T-type channels, and in undifferentiated PC12 cells, glutamate exposure (1-10 mm) over 24 hr causes oxidative stress and increased [Ca^2+]i.
# Cells receiving nanosphere treatments were incubated with nanospheres containing lomerizine, with or without modification with PEI (LNP+PEI and LNP−PEI respectively), or nanospheres containing no lomerizine but with PEI modification (ENP). […]
# For experiments, cells were seeded in 24-well plates containing 10 mm glass coverslips coated with poly(l-lysine) at a cell density of 5.0×10^4 mL^−1. […] After a further 24 hr, [Ca^2+]i was quantified as follows. […] Fluorescent data were measured on a Hamamatsu Orca ER digital camera attached to an inverted Nikon TE2000-U microscope, and analysed using Metamorph v6.3. […] [Ca^2+]i was calculated according to the equation: […]
# [1] = humans; cited from earlier work
# [2] = rats, 24 hr after oral administration; cited from earlier work
# [3] = test system: L-, T- and N-type Ca^2+ channels; details: cited from earlier work
# [4] = test system: NMDA, kainate or AMPA binding sites; details: cited from earlier work
smiles,measurement,setting,value
"COc1ccc(CN2CCN(C(c3ccc(F)cc3)c3ccc(F)cc3)CC2)c(OC)c1OC.Cl.Cl [Lomerizine, 1-[bis(4-fluorophenyl)methyl]-4-(2,3,4-trimethoxybenzyl)piperazine dihydrochloride]",intracellular calcium [Ca^2+]i after glutamate,PC12 cells,significant (p≦0.001) decrease
same,elimination half-life,[1],108 h
same,dose excreted in the feces,[2],51.7%
same,dose excreted in urine,[2],4.1%
same,calcium channel blockade selectivity,[3],"selectively blocks L- and T-type Ca^2+ channels, but not N-type channels"
same,"affinity for NMDA, kainate or AMPA binding sites",[4],no reported affinity
